Reference: ChEMBL document CHEMBL5380835, “Discovery of Clinically Used Octenidine as NRAS Repressor That Effectively Inhibits NRAS-Mutant Melanoma” (J Med Chem, 2023)
Blank lines part the entries; values can stand above or below the compound they belong to. Active and inactive are the calls of the source. The rule behind the calls is not given here.

Experiments:
[1] = Binding affinity to 5'-FAM-labeled to NRAS RNA G-quadruplex 5'-r(UGUGGGAGGGGCGGGUCUGGG)-3' (unknown origin) assessed as dissociation constant by fluorescence quenching assay
[2] = system: SK-MEL-2; experiment: Cytotoxicity against human SK-MEL-2 cells expressing NRAS mutant assessed as cell growth inhibition incubated for 48 hrs by MTT assay; format: functional, cell-based; settings: SK-MEL-2, 48 h
[3] = system: SK-MEL-2; experiment: Antitumor activity against human SK-MEL-2 cells xenografted in BALB/c nude mouse assessed as T/C ratio at 10 mg/kg/day, ip administered for 30 days relative to control; format: functional; settings: time 30 day
[4] = system: SK-MEL-2; experiment: Antitumor activity against human SK-MEL-2 cells xenografted in BALB/c nude mouse assessed as reduction in tumor weight at 10 mg/kg/day, ip administered for 30 days by electronic caliper method; format: functional, organism-based; settings: time 30.0 day
[5] = system: SK-MEL-2; experiment: Antitumor activity against human SK-MEL-2 cells xenografted in BALB/c nude mouse assessed as tumor growth inhibition at 10 mg/kg/day, ip by electronic caliper method; format: functional, organism-based; settings: time 30.0 day, TDE = time-dependent effect
[6] = system: SK-MEL-2; experiment: Antitumor activity against human SK-MEL-2 cells xenografted in BALB/c nude mouse assessed as tumor growth inhibition at 10 mg/kg/day, ip administered for 30 days relative to control; format: functional; settings: SK-MEL-2, 720 h, time 30 day, read-out: TGI
[7] = system: SK-MEL-2; experiment: Effect on NRAS protein translation in human SK-MEL-2 cells at 1/2 times IC50 incubated for 24 hrs by Western blot analysis; format: functional, cell-based
[8] = system: SK-MEL-2; experiment: Cytotoxicity against human SK-MEL-2 cells assessed as cell growth inhibition incubated for 24 hrs by MTT assay; format: functional, cell-based; settings: SK-MEL-2, 24 h
[9] = system: SK-MEL-2; experiment: Upregulation of NRAS mRNA level in human SK-MEL-2 cells at 1/2 times IC50 incubated for 24 hrs by RT-qPCR analysis; format: functional, cell-based

- Kd [1]: 0.32 µM
Structure (SMILES): CCCCCCCCN=c1ccn(CCCCCCn2ccc(=NCCCCCCCC)cc2)cc1
- IC50 [2]: 1.77 µM

Structure (SMILES): CN(C)/N=N/c1[nH]cnc1C(N)=O [DACARBAZINE]
- T/C [3]: 28.9%
- Activity [4]: Active
- Activity [5]: Tde
- inhibition in vivo at 10 mg/kg/day [6]: 57.7%

- Kd [1]: 1.29 µM
Structure (SMILES): CCCCCNc1cc[n+](CCCCCC[n+]2ccc(NCCCCC)cc2)cc1
- IC50 [2]: > 25 µM

Structure (SMILES): Nc1ccc2cc3ccc(N)cc3nc2c1 [PROFLAVINE]
- Activity [7]: inactive
- IC50 [8]: 5.31 µM
- Activity [9]: Active
- IC50 [2]: 1.6 µM

- Kd [1]: 0.21 µM
Structure (SMILES): CCCNc1cc[n+](CCCC[n+]2ccc(NCCC)cc2)cc1
